Reference: PubChem BioAssay (NCI)
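Each compound was tested at five concentrations against cells in 96-well plates for 48 hours. TGI denotes the concentration required for complete inhibition of growth.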

Assays:
Assay in all cases: growth of human tumour cells (NCI), 48 h
[1] = test system: 786-0 renal
[2] = test system: A498 renal
[3] = test system: A549 NSCLC
[4] = test system: ACHN renal
[5] = test system: BT-549 breast
[6] = test system: CAKI-1 renal
[7] = test system: CCRF-CEM leukemia
[8] = test system: COLO 205 colon
[9] = test system: DU-145 prostate
[10] = test system: EKVX NSCLC
[11] = test system: HCC-2998 colon
[12] = test system: HCT-116 colon
[13] = test system: HCT-15 colon
[14] = test system: HL-60(TB) leukemia
[15] = test system: HOP-62 NSCLC
[16] = test system: HOP-92 NSCLC
[17] = test system: HS 578T breast
[18] = test system: HT29 colon
[19] = test system: IGROV1 ovarian
[20] = test system: K-562 leukemia
[21] = test system: KM12 colon
[22] = test system: LOX IMVI melanoma
[23] = test system: M14 melanoma
[24] = test system: MALME-3M melanoma
[25] = test system: MCF7 breast
[26] = test system: MDA-MB-231 breast
[27] = test system: MDA-MB-435
[28] = test system: MDA-N
[29] = test system: MOLT-4 leukemia
[30] = test system: NCI-H226 lung
[31] = test system: NCI-H23 lung
[32] = test system: NCI-H460 lung
[33] = test system: NCI-H522 lung
[34] = test system: NCI/ADR-RES ovarian
[35] = test system: OVCAR-3 ovarian
[36] = test system: OVCAR-4 ovarian
[37] = test system: OVCAR-8 ovarian
[38] = test system: PC-3 prostate
[39] = test system: RPMI-8226 leukemia
[40] = test system: RXF 393 renal
[41] = test system: SF-268 CNS
[42] = test system: SF-295 CNS
[43] = test system: SF-539 CNS
[44] = test system: SK-MEL-2 melanoma
[45] = test system: SK-MEL-28 melanoma
[46] = test system: SK-MEL-5 melanoma
[47] = test system: SK-OV-3 ovarian
[48] = test system: SN12C renal
[49] = test system: SNB-19 CNS
[50] = test system: SNB-75 CNS
[51] = test system: SR leukemia
[52] = test system: SW-620 colon
[53] = test system: T-47D breast
[54] = test system: U251 CNS
[55] = test system: UACC-257 melanoma
[56] = test system: UACC-62 melanoma
[57] = test system: UO-31 renal
[58] = test system: OVCAR-5 ovarian
[59] = test system: TK-10 renal

CC(=O)Nc1ccc(-c2nc3ccccc3s2)cc1Br
TGI [1]: > 100 µM | TGI [2]: 32.1 µM | TGI [3]: > 100 µM | TGI [4]: > 100 µM | TGI [5]: > 100 µM | TGI [6]: > 88.1 µM | TGI [7]: > 100 µM | TGI [8]: > 100 µM | TGI [9]: > 91.4 µM | TGI [10]: > 97.1 µM | TGI [11]: > 100 µM | TGI [12]: > 100 µM | TGI [13]: > 100 µM | TGI [14]: > 100 µM | TGI [15]: 56.7 µM | TGI [16]: > 100 µM | TGI [17]: 69.1 µM | TGI [18]: > 100 µM | TGI [19]: 17.4 µM | TGI [20]: > 100 µM | TGI [21]: > 100 µM | TGI [22]: > 100 µM | TGI [23]: > 100 µM | TGI [24]: > 100 µM | TGI [25]: > 100 µM | TGI [26]: > 89 µM | TGI [27]: > 100 µM | TGI [28]: > 100 µM | TGI [29]: > 100 µM | TGI [30]: > 94.7 µM | TGI [31]: > 97.3 µM | TGI [32]: > 100 µM | TGI [33]: > 100 µM | TGI [34]: > 100 µM | TGI [35]: > 100 µM | TGI [36]: > 100 µM | TGI [37]: > 93.7 µM | TGI [38]: > 100 µM | TGI [39]: > 100 µM | TGI [40]: 66 µM | TGI [41]: > 100 µM | TGI [42]: > 100 µM | TGI [43]: > 77.3 µM | TGI [44]: > 100 µM | TGI [45]: > 100 µM | TGI [46]: > 100 µM | TGI [47]: 75 µM | TGI [48]: > 100 µM | TGI [49]: > 93.4 µM | TGI [50]: 78 µM | TGI [51]: > 100 µM | TGI [52]: > 100 µM | TGI [53]: > 100 µM | TGI [54]: > 100 µM | TGI [55]: > 100 µM | TGI [56]: > 100 µM | TGI [57]: > 100 µM

CC(C)C[C@H]1[C@@H](OCc2ccccc2)COS(=O)(=O)N1[C@H](C)c1ccccc1
TGI [1]: > 100 µM | TGI [2]: > 100 µM | TGI [3]: > 100 µM | TGI [4]: > 100 µM | TGI [5]: > 100 µM | TGI [6]: > 100 µM | TGI [7]: > 100 µM | TGI [8]: > 100 µM | TGI [9]: > 100 µM | TGI [10]: > 100 µM | TGI [11]: > 100 µM | TGI [12]: > 100 µM | TGI [13]: > 100 µM | TGI [14]: > 69.7 µM | TGI [15]: > 100 µM | TGI [16]: > 100 µM | TGI [17]: > 100 µM | TGI [18]: > 100 µM | TGI [19]: > 100 µM | TGI [20]: > 100 µM | TGI [21]: > 100 µM | TGI [22]: > 100 µM | TGI [23]: > 100 µM | TGI [24]: > 100 µM | TGI [25]: > 100 µM | TGI [26]: > 100 µM | TGI [27]: > 100 µM | TGI [28]: > 100 µM | TGI [29]: > 74.7 µM | TGI [30]: > 100 µM | TGI [31]: > 100 µM | TGI [32]: > 100 µM | TGI [33]: > 100 µM | TGI [34]: > 100 µM | TGI [35]: > 100 µM | TGI [36]: > 100 µM | TGI [58]: > 100 µM | TGI [37]: > 100 µM | TGI [38]: > 100 µM | TGI [39]: > 74.7 µM | TGI [40]: > 100 µM | TGI [41]: > 100 µM | TGI [42]: > 100 µM | TGI [43]: > 100 µM | TGI [44]: > 100 µM | TGI [45]: > 100 µM | TGI [46]: > 64.4 µM | TGI [47]: > 100 µM | TGI [48]: > 100 µM | TGI [49]: > 100 µM | TGI [50]: > 100 µM | TGI [51]: > 83.7 µM | TGI [52]: > 100 µM | TGI [53]: 39.7 µM | TGI [59]: > 100 µM | TGI [54]: > 67.7 µM | TGI [55]: > 100 µM | TGI [56]: > 100 µM | TGI [57]: > 100 µM

CN1CCC23c4c5ccc(Oc6nnnn6-c6ccccc6)c4OC2c2[nH]c4ccccc4c2CC3(O)C1C5 (configuration not stated)
TGI [1]: 3.33 µM | TGI [2]: 6.3 µM | TGI [3]: 13.1 µM | TGI [4]: 3.52 µM | TGI [5]: 36.7 µM | TGI [6]: 4.77 µM | TGI [7]: 4.19 µM | TGI [9]: 19.6 µM | TGI [10]: 24.2 µM | TGI [11]: 3.3 µM | TGI [12]: 3.45 µM | TGI [13]: 6.36 µM | TGI [14]: 3.69 µM | TGI [15]: 12.8 µM | TGI [16]: 7.71 µM | TGI [17]: 33.9 µM | TGI [18]: 5.3 µM | TGI [19]: 23 µM | TGI [20]: 3.86 µM | TGI [21]: 7.68 µM | TGI [22]: 3.75 µM | TGI [23]: 3.38 µM | TGI [24]: 3.11 µM | TGI [25]: 5.12 µM | TGI [26]: 4.16 µM | TGI [27]: 8.41 µM | TGI [28]: 3.26 µM | TGI [29]: 5.33 µM | TGI [30]: 27.6 µM | TGI [31]: 33.7 µM | TGI [32]: 3.66 µM | TGI [33]: 4.01 µM | TGI [34]: 19.7 µM | TGI [35]: 22.5 µM | TGI [36]: 7.53 µM | TGI [58]: 32.6 µM | TGI [37]: 9.6 µM | TGI [38]: 15 µM | TGI [39]: 6.06 µM | TGI [40]: 5.67 µM | TGI [41]: 21.2 µM | TGI [42]: 15.3 µM | TGI [44]: 3.28 µM | TGI [45]: 4.73 µM | TGI [47]: 25.4 µM | TGI [48]: 8.67 µM | TGI [49]: 22.4 µM | TGI [50]: 7.66 µM | TGI [51]: 3.72 µM | TGI [52]: 6.14 µM | TGI [53]: 23.1 µM | TGI [59]: 3.35 µM | TGI [54]: 3.65 µM | TGI [55]: 3.32 µM | TGI [56]: 3.52 µM | TGI [57]: 3.18 µM
